How the values were obtained:
Carragheenin foot edema = assay: Carragheenin foot edema; format: in vivo, rats (male, Wister type); conditions: Rattus norvegicus; 100 mg/Kg oral, 1 h before carragheenin; foot volume 3 h after injection; read-out: Anti-Inflammatory Effect Control Ratio, Carragheenin Foot Edema
Procedure: a. Carragheenin food edema
The test was conducted according to the method of C. […] Groups of rats (male rats of the Wister type having a body weight of 140-170 g), each group consisting of 5 to 11 rats, were caused to abstain from food for 16 hours, and a 4% gum arabic suspension of a test compound was orally administered to the rats in an amount of 100 mg/Kg. of the test compounds. Immediately, rats were allowed to drink 5 ml of purified water. […] After 3 hours had passed from the injection, the volume of the right foot was measured again to determine the increase of the volume of the right foot. In control groups, only a 4% gum arabic liquor free of a test compound was orally administered, and subsequent procedures were conducted similarly to determine the increase of the volume of the right foot. The carragheenin foot edema control ratio was calculated according to the following formula: [formula] wherein C indicates the foot volume increase in the control group and D indicates the foot volume increase in the test compound-administered group.

Ultraviolet erythema = assay: Ultraviolet erythema; format: in vivo, guinea pigs (male, Hartley type); conditions: Cavia porcellus, light or radiation study; 10 mg/Kg oral, 1 h before irradiation; read 3 h after irradiation; read-out: Anti-Inflammatory Effect Control Ratio, Ultraviolet Erythema
Procedure: The test was conducted according to a modification of the method of C. […] Groups of guinea pigs (male guinea pigs of the Hartley type having a body weight of 300 to 450 g), each group consisting of 5 to 10 guinea pigs, were employed for the test. Hairs were removed from backs of the guinea pigs by an electric hair-clipper and a depilatory agent. The guinea pigs were caused to abstain from food for 18 to 19 hours, and a test compound was orally administered in an amount of 10 mg/Kg in the form suspended in a 4% gum arabic liquor. In the case of control groups, only a 4% gum arabic liquor was administered. An adhesive plaster according to the Japanese pharmacopoeia, on which three small holes having a diameter of 5 mm were opened, was applied to the hair-removed portion of the back. […] When 3 hours had passed from the irradiation, the degree of the formation of erythema was determined. One point was given to the guinea pig on which a definite round erythema was formed, a point of 0.5 was given to the guinea pig on which formation of erythema was observed but its contour was not definite, and a point of 0 was given to the guinea pig on which no erythema was formed. Total points were calculated in both the test compound-administered group and the control group, and the control ratio was calculated from these total points. [formula]

Adjuvant arthritis = assay: Adjuvant arthritis; format: in vivo, rats (female, Wister type); conditions: Rattus norvegicus, 552 h; 9 mg/Kg per day oral for 25 days; foot volume on 23rd day from adjuvant injection; read-out: Anti-Inflammatory Effect Control Ratio, Adjuvant Arthritis
Procedure: With respect to the foregoing compounds, anti-inflammatory effects against carragheenin foot edema, ultraviolet erythema and adjuvant arthritis were tested by using rate according to the following methods to obtain results shown below.
The test was conducted according to a modification of the method of B. B. Newbould (Brit. J. Pharmacol., 21, 127 (1963)). Groups of female rats of the Wister type having a body weight of 180 - 240 g, each group consisting of 4 to 8 rats, were tested. 0.05 ml of an adjuvant (formed by suspending 5 mg of dead tuberculous bacillus, Aoyama B strain, in 1 ml of fluid paraffin according to the Japanese pharmacopoeia) was hypodermically injected in the right foot heel of each rat. A test compound was orally administered in a dosage of 9 mg/Kg per day in the form suspended in a 5% gum arabic liquor continuously for 25 days from one day before the injection of the adjuvant. In the case of the control group, only a 5% gum arabic liquor was continuously administered in the same manner. The volume of the right foot was measured 1 day before the injection of the adjuvant and on the 23rd day from the injection of the adjuvant with respect to each group. Thus, the increase of the foot volume was calculated in either the test compound-administered group or the control group, and the ratio of control of the adjuvant arthritis was calculated according to the following formula: [formula] in which C is the increase of the volume of the right foot in the control group and D indicates the increase of the volume of the right foot in the test compound-administered rat group.

inflammatory pain = assay: Analgesic effect on inflammatory pain (modified Randall and Selitto); format: in vivo, rats (male, Wister type); conditions: 100 mg/Kg oral, 1 hour before carragheenin; pain measured 3 hours after injection
Procedure: Groups of male rats of the Wister type having a body weight of about 150 g were tested, each group consisting of 5 rats. The rats were caused to abstain from food overnight, and 0.05 ml of a 1% carragheenin solution was hypodermically injected into the right hind leg of each rat. […] The test compound was orally administered in a dosage of 100 mg/Kg 1 hour before the injection of carragheenin. [formula]

in vivo [1] = conditions: mouse, in vivo, po
Procedure: (§1) With respect to the foregoing test compounds, the acute toxicity was examined by employing mice according to the following method.
(§2) Groups of male mice of the dd type having a body weight of 18 to 22 g, each, group consisting of 5 mice, were tested to determine the acute toxicity. The test compound was orally administered in a dosage indicated in Table 3a in the form suspended in 5% gum arabic liquor. The determination was conducted 7 days after the administration. Further, the LD50 values were calculated according to the method of Lichfield-Wilcoxon.

male mice = assay: in vivo; conditions: 7 days
Procedure: as §1, §2

in vivo [2] = conditions: rat, po

Compound: O=C(O)c1ccccc1Nc1c(Cl)cc(Cl)c2ccccc12 [Compound 2, N-(2,4-dichloro-1-naphthyl)anthranilic acid]
- inhibition in vivo at 100 mg/kg (Carragheenin foot edema): 27%
- inhibition in vivo at 10 mg/kg (Ultraviolet erythema): 68.9%
- inhibition in vivo at 9 mg/kg (Adjuvant arthritis): 53.5%
- Analgesic Coefficient (inflammatory pain): 1.70
- LD50 at 168 h (in vivo [1]): > 12000 mg/kg
- Number of Dead Mice/Number of Mice Tested (male mice; 1 g/kg oral): 0 / 5
- Number of Dead Mice/Number of Mice Tested (male mice; 2 g/kg oral): 0 / 5
- Number of Dead Mice/Number of Mice Tested (male mice; 3 g/kg oral): 0 / 5
- Number of Dead Mice/Number of Mice Tested (male mice; 4 g/kg oral): 0 / 5
- LD50 (in vivo [2]): 8500 mg/kg

Source: US3989746A, “Substituted naphthyl anthranilic acids” (Ikeda Mohando Co., Ltd., priority 1972, dated 1976)
